Data on 23 compounds can be found in PubChem BioAssay AID256 (DTP/NCI, 2004).

SMILES strings stand for the structures. Where “and” joins values, the source holds several entries; their conditions need not be identical. Equal entries are not always repeated. Toxic doses and inconclusive results are not listed.

The test relates to CD2F1 mice, L1210 leukemia ip, survival T/C. Kind of test: NCI In Vivo Anticancer Drug Screen. Data for tumor model L1210 Leukemia (intraperitoneal) in CD2F1 (CDF1) mice. Particulars: higher = longer survival. An outline of the steps:
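Tumor-bearing mice (transplanted tumor) were split into treated and vehicle control groups, and the measured endpoint of each treated group was divided by that of its vehicle controls.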

[1] abbreviates: endpoint: mean survival time, dose: 100.0 mg/kg/injection, schedule: Q04DX003 (ip), vehicle: saline with Tween-80.
Setting [2] is: endpoint: mean survival time, dose: 200.0 mg/kg/injection, schedule: Q04DX003 (ip), vehicle: saline with Tween-80.
The mark [3] stands for this setting: endpoint: mean survival time, dose: 400.0 mg/kg/injection, schedule: Q04DX003 (ip), vehicle: saline with Tween-80.
Where [4] appears, read: endpoint: mean survival time, dose: 100.0 mg/kg/injection, schedule: Q04DX002 (ip), vehicle: Klucel (hydroxypropylcellulose) (HPC).
The mark [5] stands for this setting: endpoint: mean survival time, dose: 25.0 mg/kg/injection, schedule: Q04DX002 (ip), vehicle: saline.
[6] abbreviates: endpoint: mean survival time, dose: 50.0 mg/kg/injection, schedule: Q04DX002 (ip), vehicle: saline.
Setting [7] is: endpoint: mean survival time, dose: 75.0 mg/kg/injection, schedule: Q01DX001 (ip), vehicle: saline.
Setting [8] is: endpoint: mean survival time, dose: 150.0 mg/kg/injection, schedule: Q01DX001 (ip), vehicle: saline.
Setting [9] is: endpoint: mean survival time, dose: 25.0 mg/kg/injection, schedule: Q01DX009 (ip), vehicle: saline with Tween-80.
[10] abbreviates: endpoint: mean survival time, dose: 50.0 mg/kg/injection, schedule: Q01DX009 (ip), vehicle: saline with Tween-80.
[11] abbreviates: endpoint: mean survival time, dose: 100.0 mg/kg/injection, schedule: Q01DX009 (ip), vehicle: saline with Tween-80.
Setting [12] is: endpoint: mean survival time, dose: 200.0 mg/kg/injection, schedule: Q01DX009 (ip), vehicle: saline with Tween-80.
Setting [13] is: endpoint: mean survival time, dose: 400.0 mg/kg/injection, schedule: Q01DX009 (ip), vehicle: saline with Tween-80.

Take `CC(=O)Nc1c(N)ncnc1N`: the T/C under setting [1] is 90 % of control, the T/C under setting [2] is 93 % of control and the T/C under setting [3] was 98 % of control.

Consider `CC(CCCOS(C)(=O)=O)OS(C)(=O)=O` (configuration not stated), for which the T/C (endpoint: mean survival time, dose: 25.0 mg/kg/injection, schedule: Q04DX002 (ip), vehicle: Klucel (hydroxypropylcellulose) (HPC)) was 105 % of control; the T/C (endpoint: mean survival time, dose: 50.0 mg/kg/injection, schedule: Q04DX002 (ip), vehicle: Klucel (hydroxypropylcellulose) (HPC)) is 108 % of control; the T/C under setting [4] is 94 % of control.

As to `[Cl][Pt][Cl].[NH-]C(CO)C(=O)O` (configuration not stated), the T/C by setting is: (endpoint: mean survival time, dose: 3.13 mg/kg/injection, schedule: Q04DX003 (ip), vehicle: water) 106 % of control; (endpoint: mean survival time, dose: 6.25 mg/kg/injection, schedule: Q04DX003 (ip), vehicle: water) 113 % of control; (endpoint: mean survival time, dose: 12.5 mg/kg/injection, schedule: Q04DX003 (ip), vehicle: water) 113 % of control; (endpoint: mean survival time, dose: 25.0 mg/kg/injection, schedule: Q04DX003 (ip), vehicle: water) 118 % of control; (endpoint: mean survival time, dose: 50.0 mg/kg/injection, schedule: Q04DX003 (ip), vehicle: water) 119 % of control; (endpoint: mean survival time, dose: 100.0 mg/kg/injection, schedule: Q04DX003 (ip), vehicle: water) 95 % of control. The T/C is, setting by setting: (endpoint: median survival time, dose: 6.25 mg/kg/injection, schedule: Q01DX009 (ip), vehicle: water) 117 % of control; (endpoint: median survival time, dose: 12.5 mg/kg/injection, schedule: Q01DX009 (ip), vehicle: water) 117 % of control; (endpoint: median survival time, dose: 25.0 mg/kg/injection, schedule: Q01DX009 (ip), vehicle: water) 124 % of control.

As to `CC(=O)N1CCCCC1C/C(C)=N/O` (configuration not stated), the T/C was 105 % of control under setting [1], 95 % of control under setting [2] and 109 % of control under setting [3].

`Cc1ccccc1N(CC1CO1)CC1CO1` (configuration not stated): the T/C is, setting by setting: (endpoint: mean survival time, dose: 12.5 mg/kg/injection, schedule: Q01DX009 (ip), vehicle: saline) 115 % of control and 104 % of control; (endpoint: mean survival time, dose: 25.0 mg/kg/injection, schedule: Q01DX009 (ip), vehicle: saline) 98 % of control and 106 % of control; (endpoint: mean survival time, dose: 50.0 mg/kg/injection, schedule: Q01DX009 (ip), vehicle: saline) 100 % of control and 111 % of control; (endpoint: mean survival time, dose: 100.0 mg/kg/injection, schedule: Q01DX009 (ip), vehicle: saline) 100 % of control and 106 % of control; (endpoint: mean survival time, dose: 200.0 mg/kg/injection, schedule: Q01DX009 (ip), vehicle: saline) 101 % of control and 108 % of control; (endpoint: mean survival time, dose: 400.0 mg/kg/injection, schedule: Q01DX009 (ip), vehicle: saline) 100 % of control and 106 % of control.

On to `CC([NH-])c1ccccc1.[Cl][Pt]([Cl])[Cl]` (configuration not stated), for which the T/C runs as follows: (endpoint: mean survival time, dose: 100.0 mg/kg/injection, schedule: Q04DX003 (ip), vehicle: saline) 101 % of control; (endpoint: mean survival time, dose: 200.0 mg/kg/injection, schedule: Q04DX003 (ip), vehicle: saline) 100 % of control; (endpoint: mean survival time, dose: 400.0 mg/kg/injection, schedule: Q04DX003 (ip), vehicle: saline) 101 % of control.

On to `[Co+2].[NH-]c1ccccc1C(=O)O.[NH-]c1ccccc1C(=O)O`, for which the T/C under setting [1] was 89 % of control, the T/C under setting [2] was 91 % of control and the T/C under setting [3] is 91 % of control.

With `COc1cc2c(c(OC)c1OC)-c1ccc(OC)c(=O)cc1[C@@H](NC(=O)CF)CC2`, the T/C (endpoint: mean survival time, dose: 0.37 mg/kg/injection, schedule: Q01DX009 (ip), vehicle: saline) was 109 % of control.

Turning to `c1ccc(NC2CCN(C3(c4ccccc4)CCCCC3)CC2)cc1`, the T/C was 97 % of control under setting [5] and 94 % of control under setting [6].

Take `CCOC(=O)c1ncsc1NC(=O)NC`: the T/C is 101 % of control under setting [7] and 100 % of control under setting [8].

In the case of `CC1SCCS1`, the T/C is 95 % of control (endpoint: mean survival time, dose: 100.0 mg/kg/injection, schedule: Q01DX001 (ip), vehicle: saline with Tween-80); 105 % of control (endpoint: mean survival time, dose: 200.0 mg/kg/injection, schedule: Q01DX001 (ip), vehicle: saline with Tween-80); 100 % of control (endpoint: mean survival time, dose: 400.0 mg/kg/injection, schedule: Q01DX001 (ip), vehicle: saline with Tween-80).

`CC1CCN(N=Nc2ccccc2-c2nc(N)c3ccccc3n2)CC1`: the T/C runs as follows: under setting [4], 98 % of control; (endpoint: mean survival time, dose: 200.0 mg/kg/injection, schedule: Q04DX002 (ip), vehicle: Klucel (hydroxypropylcellulose) (HPC)) 109 % of control; (endpoint: mean survival time, dose: 400.0 mg/kg/injection, schedule: Q04DX002 (ip), vehicle: Klucel (hydroxypropylcellulose) (HPC)) 95 % of control.

In the case of `Cc1cc(Nc2ccc3c(c2)OCO3)c2cc3c(cc2n1)OCO3`, the T/C was 105 % of control (endpoint: median survival time, dose: 25.0 mg/kg/injection, schedule: Q01DX009 (ip), vehicle: Klucel (hydroxypropylcellulose) (HPC)); 121 % of control (endpoint: median survival time, dose: 50.0 mg/kg/injection, schedule: Q01DX009 (ip), vehicle: Klucel (hydroxypropylcellulose) (HPC)); 94 % of control (endpoint: median survival time, dose: 100.0 mg/kg/injection, schedule: Q01DX009 (ip), vehicle: Klucel (hydroxypropylcellulose) (HPC)).

As for `S=C=NCCCCCCN=C=S`, the T/C was 104 % of control (endpoint: mean survival time, dose: 6.25 mg/kg/injection, schedule: Q04DX002 (ip), vehicle: saline); 98 % of control (endpoint: mean survival time, dose: 12.5 mg/kg/injection, schedule: Q04DX002 (ip), vehicle: saline); 90 % of control and 102 % of control under setting [5]; 98 % of control under setting [6].

For `C[Si](C)(C)Oc1cc(N=NNC2=CC(=O)c3ccccc3C2=O)c(O)c2ccccc12`, the T/C runs as follows: (endpoint: mean survival time, dose: 12.5 mg/kg/injection, schedule: Q01DX009 (ip), vehicle: saline with Tween-80) 95 % of control; under setting [9], 98 % of control; under setting [10], 95 % of control.

As for `CC1(C)C(N2CCCCC2)CS1(=O)=O` (configuration not stated), the T/C by setting is: (endpoint: mean survival time, dose: 25.0 mg/kg/injection, schedule: Q04DX003 (ip), vehicle: saline) 98 % of control; (endpoint: mean survival time, dose: 50.0 mg/kg/injection, schedule: Q04DX003 (ip), vehicle: saline) 95 % of control; (endpoint: mean survival time, dose: 100.0 mg/kg/injection, schedule: Q01DX001 (ip), vehicle: saline) 101 % of control.

As to `CCOC(=O)CNC(=O)Oc1ccc(C=O)cc1OC`, the T/C under setting [9] was 100 % of control, the T/C under setting [10] is 101 % of control and the T/C under setting [11] was 90 % of control.

As for `Nc1nnnn1-c1cccc(Cl)c1`, the T/C is, setting by setting: under setting [11], 96 % of control; under setting [12], 102 % of control; under setting [13], 106 % of control.

With `O=[N+]([O-])c1ccc2c(c1)CS(=O)(=O)C2`, the T/C by setting is: under setting [11], 101 % of control; under setting [1], 96 % of control; under setting [12], 101 % of control; under setting [2], 90 % of control; under setting [13], 101 % of control; under setting [3], 96 % of control.

Take `[N-]=[N+]=CC(=O)NCC(=O)NCCNCCO`: the T/C (endpoint: mean survival time, dose: 400.0 mg/kg/injection, schedule: Q01DX009 (ip), vehicle: other) is 156 % of control; the T/C (endpoint: mean survival time, dose: 600.0 mg/kg/injection, schedule: Q01DX009 (ip), vehicle: other) was 164 % of control; the T/C (endpoint: mean survival time, dose: 800.0 mg/kg/injection, schedule: Q01DX009 (ip), vehicle: other) is 155 % of control.

On to `CC([NH-])CC[NH-].O=S(=O)(O)O.[Pt+2]` (configuration not stated), for which the T/C (endpoint: mean survival time, dose: 6.25 mg/kg/injection, schedule: Q04DX003 (ip), vehicle: saline) was 158 % of control.

For `C=COC(=O)NC(CC(C)C)C(=O)O` (configuration not stated), the T/C was 103 % of control under setting [7] and 101 % of control under setting [8].

In the case of `COc1ccc(C(=O)c2ncccc2C)cc1OC`, the T/C is 94 % of control (endpoint: mean survival time, dose: 12.5 mg/kg/injection, schedule: Q01DX009 (ip), vehicle: water); 95 % of control (endpoint: mean survival time, dose: 25.0 mg/kg/injection, schedule: Q01DX009 (ip), vehicle: water); 94 % of control (endpoint: mean survival time, dose: 50.0 mg/kg/injection, schedule: Q01DX009 (ip), vehicle: water); 94 % of control (endpoint: mean survival time, dose: 100.0 mg/kg/injection, schedule: Q01DX009 (ip), vehicle: water); 88 % of control (endpoint: mean survival time, dose: 200.0 mg/kg/injection, schedule: Q01DX009 (ip), vehicle: water).
